Assay results as given in ChEMBL document CHEMBL3400095, “β-sheet interfering molecules acting against β-amyloid aggregation and fibrillogenesis” (Bioorg Med Chem, 2015).

How the values were obtained:
Mus musculus [1] = species on record: Mus musculus; experiment: Reduction in amyloid beta levels in Tg2576 mouse; type: functional
Mus musculus [2] = species on record: Mus musculus; experiment: Reduction in amyloid beta plaques in Tg2576 mouse; type: functional
[3] = target: Amyloid-beta precursor protein (Homo sapiens, UniProt P05067); experiment: Inhibition of amyloid beta (1 to 40) (unknown origin) aggregation
Chain of Amyloid-beta precursor protein (P05067 whole entry): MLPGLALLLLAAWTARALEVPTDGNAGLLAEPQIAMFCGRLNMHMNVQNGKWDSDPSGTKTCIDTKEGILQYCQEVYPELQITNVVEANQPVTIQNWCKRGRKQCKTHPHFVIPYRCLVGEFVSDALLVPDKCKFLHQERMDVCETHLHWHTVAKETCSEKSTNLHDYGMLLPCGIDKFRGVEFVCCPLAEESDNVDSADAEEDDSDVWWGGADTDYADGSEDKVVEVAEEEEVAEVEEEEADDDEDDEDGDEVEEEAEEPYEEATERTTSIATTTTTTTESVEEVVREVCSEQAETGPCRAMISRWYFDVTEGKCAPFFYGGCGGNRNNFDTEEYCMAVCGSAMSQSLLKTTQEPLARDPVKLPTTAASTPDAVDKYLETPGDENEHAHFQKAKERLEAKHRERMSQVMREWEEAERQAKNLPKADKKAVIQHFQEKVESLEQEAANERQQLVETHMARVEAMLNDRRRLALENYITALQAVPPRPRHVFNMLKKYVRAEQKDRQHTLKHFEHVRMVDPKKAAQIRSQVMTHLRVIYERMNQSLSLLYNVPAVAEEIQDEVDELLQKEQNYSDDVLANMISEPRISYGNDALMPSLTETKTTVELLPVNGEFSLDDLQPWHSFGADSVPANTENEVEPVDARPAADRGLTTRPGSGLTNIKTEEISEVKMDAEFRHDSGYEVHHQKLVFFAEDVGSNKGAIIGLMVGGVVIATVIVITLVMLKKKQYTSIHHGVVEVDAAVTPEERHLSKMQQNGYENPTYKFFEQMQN

| Compound | inhibition (INH) (Mus musculus [1]) | inhibition (INH) (Mus musculus [2]) | IC50 [3] |
| --- | --- | --- | --- |
| O=C(O[C@@H]1Cc2c(O)cc(O)cc2O[C@@H]1c1cc(O)c(O)c(O)c1)c1cc(O)c(O)c(O)c1 [EPIGALOCATECHIN GALLATE] | 50% | 50% | – |
| CNc1ccc(C(=O)NC(CCCCCNC(=O)OCc2ccccc2)C(=O)O)cc1 (centres undefined) | – | – | 2750 nM |
| O=C(Cc1ccccc1)NC(CSSCC(NC(=O)Cc1ccccc1)C(=O)O)C(=O)O (centres undefined) | – | – | 1950 nM |
